Consider 16 compounds from US20240067632A1, “WEE1 Degrading Compounds and Uses Thereof” (Bristol-Myers Squibb Company, priority 2022, published 2024).

One experiment addresses T1, WEE1 (Homo sapiens, UniProt P30291+Q96SW2).
T1 construct: C-terminal ePL-tagged (DiscoverX, Fremont, CA) full-length WEE1 expression construct; expressed in transfected cells; host or cells: LentiX-HEK293T (Invitrogen), lentiviral transduction; co-expressing GSPT1-GN (G576N, lacking the first 158 amino acids)
Kind of experiment: WEE1-ePL degradation assay (LentiX-WEE1-ePL-GSPT1-ND cells, InCELL Hunter luminescence, 4 h). Particulars: 293T-LentiX WEE1-ePL cells; for 293T-LentiX WEE1-ePL Degradation 4 hr (Ymin): lower limit of the fit (0 = luciferase inhibitor, Ymax = DMSO control); for DC50: read-out: 293T-LentiX WEE1-ePL Degradation 4 hr (EC50). Type of experiment: cell-based. Summed up: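 First, compounds were pre-plated as 10-point, 3-fold dilutions (top 1 uM or 10 uM) with DMSO control; next, WEE1-ePL-expressing HEK293T cells were added and held 4 h at 37 °C; finally, InCELL Hunter reagent was applied for 30 min before luminescence reading. A 4PL fit gave EC50 and Ymin.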

The next experiment relates to MKN45 cells. Kind of experiment: MKN45 cell proliferation assay (Cell-Titer-Glo, 120 h). It counts as cell-based. Particulars: for EC50: Homo sapiens, MKN-45, 120 h, Cell-Titer-Glo, growth inhibition, read-out: MKN45 Cell Prolif. 120 hr (EC50); for MKN45 Cell Prolif. 120 hr (Ymin-Obs): minimal percent of DMSO control observed in the concentrations tested. Here is the method:
MKN45 cells were obtained from Celgene internal cell banks and cultured in RPMI complete media (RPMI-1640, 1× Penicillin/Streptomycin, 1× glutamine, 1× Sodium Pyruvate, Non-essential Amino Acids, 10% Fetal Bovine serum, all component from Thermo-Fisher). Compounds were dispensed into 384-well plates using an HP DE300 compound printer in triplicate with 8 compounds on each plate. For each compound, a 10-point dose response was printed at half-log dilutions starting at either 1 uM or 10 uM. The DMSO concentration was kept constant for a final assay concentration of 0.1% per well assuming 50 ul final media volume. Compound plates were sealed and frozen at −20 C until use.
For each assay batch, compound plates were thawed and allowed to reach room temperature, and cells were seeded at 400 cells per well in 50 ul complete RPMI media. After 120 hours of incubation at 37 C and 5% CO2, cells were lysed by addition of 25 μL of Cell-Titer-Glo Reagent (Promega Corporation, Madison, WI), as per manufacturer's instructions, protected from light, shaken for 45 minutes, and total luminescence read by a Perkin Elmer Envision plate reader. Total luminescence signal is linearly correlated with cell number remaining in the well.
Luminescence data was processed per plate by subtracting reagent-only “blank” well luminescence from all measured values and calculating a percent of DMSO control value for each treatment well. Then, to determine the half-maximal effective concentration (EC50) values for cell growth inhibition, a four parameter logistic model was fit to the data for each DMSO-normalized compound: Sigmoidal Dose-Response Model: (FIT=(A+((B−A)/1+((C/x)^D)))) where C is the inflection point (EC50), D is the Hill slope, and A and B are the low and high limits of the fit respectively. The lower limit of the fit (value A) is referred to as Ymin-calculated. The minimal percent of DMSO control that is observed in the concentrations tested for each compound is labeled as “Ymin-obs”, and was recorded and reported in the tables. Sigmoidal fit curves were processed and evaluated using Activity Base (IDBS, Alameda, CA).

The structures appear in SMILES notation.

A word on the EC50: it is the concentration at which the effect is half-maximal. On to `O=C1CCC(N2Cc3cc(O[C@H]4CCN(Cc5ccc6nc([C@H]7CC[C@H](O)CC7)ccc6c5)C4)ccc3C2=O)C(=O)N1` (stereo partly drawn) [3-(1-oxo-5-{[(3S)-1-({2-[(1r,4r)-4-hydroxycyclohexyl]quinolin-6-yl}methyl)pyrrolidin-3-yl]oxy}-2,3-dihydro-1H-isoindol-2-yl)piperidine-2,6-dione], for which, on WEE1, the “293T-LentiX WEE1-ePL Degradation 4 hr (Ymin)” value stood at 30 and the DC50 is 4.67 nM. Also, in the experiment on MKN45 cells, the EC50 came out at 2.79 nM and the “MKN45 Cell Prolif. 120 hr (Ymin-Obs)” value came out at 7.3325.

As for `CO[C@H]1CC[C@H](c2ccc3cc(CN4CC[C@H](Oc5ccc6c(c5)CN(C5CCC(=O)NC5=O)C6=O)C4)ccc3n2)CC1` (stereo partly drawn) [3-(1-oxo-5-{[(3S)-1-({2-[(1r,4r)-4-methoxycyclohexyl]quinolin-6-yl}methyl)pyrrolidin-3-yl]oxy}-2,3-dihydro-1H-isoindol-2-yl)piperidine-2,6-dione], on WEE1, the “293T-LentiX WEE1-ePL Degradation 4 hr (Ymin)” value is listed as 26 and the DC50 was determined as 1.88 nM. Besides, in the experiment with MKN45 cells, the EC50 turned out to be 1.29 nM and the “MKN45 Cell Prolif. 120 hr (Ymin-Obs)” value is recorded as 11.035.

Take `O=C1CCC(N2Cc3cc(O[C@H]4CCN(Cc5ccc6nc([C@H]7C[C@@H](O)C7)ccc6c5)C4)ccc3C2=O)C(=O)N1` (stereo partly drawn) [3-(1-oxo-5-{[(3S)-1-({2-[(1s,3s)-3-hydroxycyclobutyl]quinolin-6-yl}methyl)pyrrolidin-3-yl]oxy}-2,3-dihydro-1H-isoindol-2-yl)piperidine-2,6-dione]: at WEE1, the “293T-LentiX WEE1-ePL Degradation 4 hr (Ymin)” value is 31 and the DC50 came out at 2.09 nM. Also, in the experiment on MKN45 cells, the EC50 was determined as 5.21 nM and the “MKN45 Cell Prolif. 120 hr (Ymin-Obs)” value is 6.89.

Regarding `COC[C@H]1CC[C@@H](c2ccc3cc(CN4CC[C@H](Oc5ccc6c(c5)CN(C5CCC(=O)NC5=O)C6=O)C4)ccc3n2)CC1` (stereo partly drawn) [3-(1-oxo-5-{[(3S)-1-({2-[(1s,4s)-4-(methoxymethyl)cyclohexyl]quinolin-6-yl}methyl)pyrrolidin-3-yl]oxy}-2,3-dihydro-1H-isoindol-2-yl)piperidine-2,6-dione], on WEE1, the “293T-LentiX WEE1-ePL Degradation 4 hr (Ymin)” value stood at 28.9 and the DC50 was determined as 1.22 nM. In the experiment with MKN45 cells, the EC50 came out at 2.66 nM and the “MKN45 Cell Prolif. 120 hr (Ymin-Obs)” value is 12.53.

In the case of `O=C1CCC(N2Cc3cc(O[C@H]4CCN(Cc5ccc6nc([C@H]7CC[C@@H](O)CC7)ccc6c5)C4)ccc3C2=O)C(=O)N1` (stereo partly drawn) [3-(1-oxo-5-{[(3S)-1-({2-[(1s,4s)-4-hydroxycyclohexyl]quinolin-6-yl}methyl)pyrrolidin-3-yl]oxy}-2,3-dihydro-1H-isoindol-2-yl)piperidine-2,6-dione], on WEE1, the “293T-LentiX WEE1-ePL Degradation 4 hr (Ymin)” value is reported as 33 and the DC50 was found to be 1.03 nM. Besides, in the experiment on MKN45 cells, the EC50 turned out to be 0.329 nM and the “MKN45 Cell Prolif. 120 hr (Ymin-Obs)” value came to 7.956.

With `CO[C@H]1CC[C@@H](c2ccc3cc(CN4CC[C@H](Oc5ccc6c(c5)CN(C5CCC(=O)NC5=O)C6=O)C4)ccc3n2)CC1` (stereo partly drawn) [3-(1-oxo-5-{[(3S)-1-({2-[(1s,4s)-4-methoxycyclohexyl]quinolin-6-yl}methyl)pyrrolidin-3-yl]oxy}-2,3-dihydro-1H-isoindol-2-yl)piperidine-2,6-dione], at WEE1, the “293T-LentiX WEE1-ePL Degradation 4 hr (Ymin)” value was 30 and the DC50 was 1.12 nM. Besides, in the experiment on MKN45 cells, the EC50 is 1.14 nM and the “MKN45 Cell Prolif. 120 hr (Ymin-Obs)” value came to 9.583.

`O=C1CCC(N2Cc3cc(O[C@H]4CCN(Cc5ccc6nc([C@H]7CCOC7)ccc6c5)C4)ccc3C2=O)C(=O)N1` (stereo partly drawn) [3-(1-oxo-5-{[(3S)-1-({2-[(3R)-oxolan-3-yl]quinolin-6-yl}methyl)pyrrolidin-3-yl]oxy}-2,3-dihydro-1H-isoindol-2-yl)piperidine-2,6-dione]: on WEE1, the “293T-LentiX WEE1-ePL Degradation 4 hr (Ymin)” value was 29 and the DC50 was found to be 2.71 nM. Besides, in the experiment with MKN45 cells, the EC50 turned out to be 6.07 nM and the “MKN45 Cell Prolif. 120 hr (Ymin-Obs)” value stood at 8.454.

With `O=C1CCC(N2Cc3cc(O[C@H]4CCN(Cc5ccc6nc([C@@H]7CCOC7)ccc6c5)C4)ccc3C2=O)C(=O)N1` (stereo partly drawn) [3-(1-oxo-5-{[(3S)-1-({2-[(3S)-oxolan-3-yl]quinolin-6-yl}methyl)pyrrolidin-3-yl]oxy}-2,3-dihydro-1H-isoindol-2-yl)piperidine-2,6-dione], at WEE1, the “293T-LentiX WEE1-ePL Degradation 4 hr (Ymin)” value is on record as 30 and the DC50 is 2.41 nM. Also, in the experiment on MKN45 cells, the EC50 is 2.45 nM and the “MKN45 Cell Prolif. 120 hr (Ymin-Obs)” value turned out to be 8.77.

In the case of `CC(C)OCc1ccc2cc(CN3CC[C@H](Oc4ccc5c(c4)CN(C4CCC(=O)NC4=O)C5=O)C3)ccc2n1` (stereo partly drawn) [3-(1-oxo-5-{[(3S)-1-({2-[(propan-2-yloxy)methyl]quinolin-6-yl}methyl)pyrrolidin-3-yl]oxy}-2,3-dihydro-1H-isoindol-2-yl)piperidine-2,6-dione], at WEE1, the “293T-LentiX WEE1-ePL Degradation 4 hr (Ymin)” value was found to be 36 and the DC50 worked out at 6.51 nM. In the experiment with MKN45 cells, the EC50 amounted to 3.4 nM and the “MKN45 Cell Prolif. 120 hr (Ymin-Obs)” value worked out at 8.147.

For the compound `O=C1CCC(N2Cc3cc(O[C@H]4CCN(Cc5ccnc6c5CCCO6)C4)ccc3C2=O)C(=O)N1` (stereo partly drawn) [3-(1-oxo-5-{[(3S)-1-({2H,3H,4H-pyrano[2,3-b]pyridin-5-yl}methyl)pyrrolidin-3-yl]oxy}-2,3-dihydro-1H-isoindol-2-yl)piperidine-2,6-dione], on WEE1, the “293T-LentiX WEE1-ePL Degradation 4 hr (Ymin)” value was 44 and the DC50 came out at 38.9 nM. In the experiment on MKN45 cells, the EC50 is 489 nM and the “MKN45 Cell Prolif. 120 hr (Ymin-Obs)” value is reported as 27.04.

Regarding `O=C1CCC(N2Cc3cc(O[C@H]4CCN(Cc5cnc6c(c5)CCCO6)C4)ccc3C2=O)C(=O)N1` (stereo partly drawn) [3-(1-oxo-5-{[(3S)-1-({2H,3H,4H-pyrano[2,3-b]pyridin-6-yl}methyl)pyrrolidin-3-yl]oxy}-2,3-dihydro-1H-isoindol-2-yl)piperidine-2,6-dione], on WEE1, the “293T-LentiX WEE1-ePL Degradation 4 hr (Ymin)” value was 33.245 and the DC50 came to 35.4 nM. In the experiment on MKN45 cells, the EC50 amounted to 1120 nM and the “MKN45 Cell Prolif. 120 hr (Ymin-Obs)” value came to 23.52.

On to `O=C1CCC(N2Cc3cc(O[C@H]4CCN(Cc5cncc6c5CCCO6)C4)ccc3C2=O)C(=O)N1` (stereo partly drawn) [3-(1-oxo-5-{[(3S)-1-({2H,3H,4H-pyrano[2,3-c]pyridin-5-yl}methyl)pyrrolidin-3-yl]oxy}-2,3-dihydro-1H-isoindol-2-yl)piperidine-2,6-dione], for which, at WEE1, the “293T-LentiX WEE1-ePL Degradation 4 hr (Ymin)” value is 29.38 and the DC50 came to 24.6 nM. In the experiment on MKN45 cells, the EC50 was 69.9 nM and the “MKN45 Cell Prolif. 120 hr (Ymin-Obs)” value was 11.03.

As to `O=C1CCC(N2Cc3cc(O[C@H]4CCN(Cc5cc6c(cn5)OCCC6)C4)ccc3C2=O)C(=O)N1` (stereo partly drawn) [3-(1-oxo-5-{[(3S)-1-({2H,3H,4H-pyrano[2,3-c]pyridin-6-yl}methyl)pyrrolidin-3-yl]oxy}-2,3-dihydro-1H-isoindol-2-yl)piperidine-2,6-dione], on WEE1, the “293T-LentiX WEE1-ePL Degradation 4 hr (Ymin)” value is given as 33 and the DC50 stood at 12.3 nM. In addition, in the experiment with MKN45 cells, the EC50 was found to be 153 nM and the “MKN45 Cell Prolif. 120 hr (Ymin-Obs)” value is on record as 12.988.

Regarding `O=C1CCC(N2Cc3cc(O[C@H]4CCN(Cc5nccc6c5CCCO6)C4)ccc3C2=O)C(=O)N1` (stereo partly drawn) [3-(1-oxo-5-{[(3S)-1-({2H,3H,4H-pyrano[3,2-c]pyridin-5-yl}methyl)pyrrolidin-3-yl]oxy}-2,3-dihydro-1H-isoindol-2-yl)piperidine-2,6-dione], at WEE1, the “293T-LentiX WEE1-ePL Degradation 4 hr (Ymin)” value was 36 and the DC50 was 16.1 nM. In addition, in the experiment with MKN45 cells, the half-maximal effective concentration (EC50) was 122 nM and the “MKN45 Cell Prolif. 120 hr (Ymin-Obs)” value is reported as 16.99.

For `O=C1CCC(N2Cc3cc(O[C@H]4CCN(Cc5cnc6c(c5)CCOC6)C4)ccc3C2=O)C(=O)N1` (stereo partly drawn) [3-(1-oxo-5-{[(3S)-1-({5H,6H,8H-pyrano[3,4-b]pyridin-3-yl}methyl)pyrrolidin-3-yl]oxy}-2,3-dihydro-1H-isoindol-2-yl)piperidine-2,6-dione], on WEE1, the “293T-LentiX WEE1-ePL Degradation 4 hr (Ymin)” value worked out at 30 and the DC50 amounted to 27.3 nM. In the experiment with MKN45 cells, the EC50 worked out at 252 nM and the “MKN45 Cell Prolif. 120 hr (Ymin-Obs)” value is recorded as 8.89.

For the compound `O=C1CCC(N2Cc3cc(O[C@H]4CCN(Cc5ccnc6c5CCOC6)C4)ccc3C2=O)C(=O)N1` (stereo partly drawn) [3-(1-oxo-5-{[(3S)-1-({5H,6H,8H-pyrano[3,4-b]pyridin-4-yl}methyl)pyrrolidin-3-yl]oxy}-2,3-dihydro-1H-isoindol-2-yl)piperidine-2,6-dione], at WEE1, the “293T-LentiX WEE1-ePL Degradation 4 hr (Ymin)” value came out at 51 and the DC50 amounted to 62.7 nM. Further, in the experiment on MKN45 cells, the EC50 came out at 1280 nM and the “MKN45 Cell Prolif. 120 hr (Ymin-Obs)” value stood at 56.39.
